Measurements from patent publication US20240024273A1, “TOPICAL ADMINISTRATION OF 2-(DIETHYLAMINO)ETHYL 2-(4-ISOBUTYLPHENYL)PROPRIONATE FOR TREATMENT OF DISEASES” (TECHFIELDS PHARMA CO., LTD., priority 2020, published 2024).

Tested on: Subjects with Osteoarthritis of the Knee
Assay: Second Phase 2 study: safety (treatment-emergent adverse events)
Format: in vivo, human
Conditions: BID
Excerpt: Safety assessments will be performed at each visit and will include assessment of AEs, vital signs (blood pressure, pulse rate, and oral temperature), clinical laboratories, physical examination, skin irritation, and electrocardiograms (ECGs) as indicated in the study flow chart, Table 47.
Safety assessments will include AEs, vital signs (blood pressures, pulse rate, and oral temperature), clinical laboratories, physical examination, skin irritation, and ECGs at various time points during the study as indicated in the study flow chart.
Adverse events of interest include: local skin reactions around the treated knee(s), upper stomach pain, GI bleeding, serious cardiovascular side effects (e.g., thrombotic events, myocardial infarction, or stroke), jaundice, elevated liver function tests, and nausea.
Safety analyses will be conducted on the SAS. Safety parameters will be listed and summarized using standard descriptive statistics, as appropriate. No formal statistical analyses are planned.

[1] = moderate adverse events, 4.375 mg/knee, N = 71
[2] = moderate adverse events, 8.75 mg/knee, N = 70
[3] = possibly, probably, or definitely related to study drug, 4.375 mg/knee, N = 71
[4] = possibly, probably, or definitely related to study drug, 8.75 mg/knee, N = 70
[5] = possibly, probably, or definitely related to study drug, 17.5 mg/knee, N = 70

CCN(CC)CCOC(=O)C(C)c1ccc(CC(C)C)cc1 (stereo not shown) [2-(diethylamino)ethyl 2-(4-isobutylphenyl)propionate]
Gastroenteritis: subjects with adverse events [1]: 1 | Gastroesophageal reflux disease: number of adverse events [1]: 1 | Gastroesophageal reflux disease: percentage of subjects with adverse events [1]: 1.4% | Gastroesophageal reflux disease: subjects with adverse events [1]: 1 | Total Adverse Events: number of adverse events [1]: 3 | Total Adverse Events: percentage of subjects with adverse events [1]: 4.2% | Total Adverse Events: subjects with adverse events [1]: 3 | Upper Respiratory Tract Infection: number of adverse events [1]: 1 | Upper Respiratory Tract Infection: percentage of subjects with adverse events [1]: 1.4% | Upper Respiratory Tract Infection: subjects with adverse events [1]: 1 | Total Adverse Events: number of adverse events [2]: 4 | Total Adverse Events: percentage of subjects with adverse events [2]: 5.7% | Total Adverse Events: subjects with adverse events [2]: 4 | Upper Respiratory Tract Infection: number of adverse events [2]: 4 | Upper Respiratory Tract Infection: percentage of subjects with adverse events [2]: 1.4% | Upper Respiratory Tract Infection: subjects with adverse events [2]: 4 | Abdominal Pain Upper: number of adverse events [3]: 1 | Abdominal Pain Upper: percentage of subjects with adverse events [3]: 1.4% | Abdominal Pain Upper: subjects with adverse events [3]: 1 | Administration Site Conditions: number of adverse events [3]: 1 | Administration Site Conditions: percentage of subjects with adverse events [3]: 1.4% | Administration Site Conditions: subjects with adverse events [3]: 1 | Alanine Aminotransferase Increased: number of adverse events [3]: 1 | Alanine Aminotransferase Increased: percentage of subjects with adverse events [3]: 1.4% | Alanine Aminotransferase Increased: subjects with adverse events [3]: 1 | Application Site Irritation: number of adverse events [3]: 1 | Application Site Irritation: percentage of subjects with adverse events [3]: 1.4% | Application Site Irritation: subjects with adverse events [3]: 1 | Aspartate Aminotransferase Increased: number of adverse events [3]: 3 | Aspartate Aminotransferase Increased: percentage of subjects with adverse events [3]: 4.2% | Aspartate Aminotransferase Increased: subjects with adverse events [3]: 3 | Gamma-Glutamyltransferase Increased: number of adverse events [3]: 2 | Gamma-Glutamyltransferase Increased: percentage of subjects with adverse events [3]: 2.8% | Gamma-Glutamyltransferase Increased: subjects with adverse events [3]: 2 | Headache: number of adverse events [3]: 1 | Headache: percentage of subjects with adverse events [3]: 1.4% | Headache: subjects with adverse events [3]: 1 | Hypertriglyceridemia: number of adverse events [3]: 6 | Hypertriglyceridemia: percentage of subjects with adverse events [3]: 7.0% | Hypertriglyceridemia: subjects with adverse events [3]: 5 | Positive Fecal Occult Blood Test: number of adverse events [3]: 6 | Positive Fecal Occult Blood Test: percentage of subjects with adverse events [3]: 7.0% | Positive Fecal Occult Blood Test: subjects with adverse events [3]: 5 | Throat Irritation: number of adverse events [3]: 2 | Throat Irritation: percentage of subjects with adverse events [3]: 2.8% | Throat Irritation: subjects with adverse events [3]: 2 | Total Adverse Events: number of adverse events [3]: 26 | Total Adverse Events: percentage of subjects with adverse events [3]: 33.8% | Total Adverse Events: subjects with adverse events [3]: 24 | White Blood Cell Count Decreased: number of adverse events [3]: 2 | White Blood Cell Count Decreased: percentage of subjects with adverse events [3]: 2.8% | White Blood Cell Count Decreased: subjects with adverse events [3]: 2 | Abdominal Discomfort: number of adverse events [4]: 4 | Abdominal Discomfort: percentage of subjects with adverse events [4]: 4.3% | Abdominal Discomfort: subjects with adverse events [4]: 3 | Abdominal Pain Upper: number of adverse events [4]: 1 | Abdominal Pain Upper: percentage of subjects with adverse events [4]: 1.4% | Abdominal Pain Upper: subjects with adverse events [4]: 1 | Administration Site Conditions: number of adverse events [4]: 1 | Administration Site Conditions: percentage of subjects with adverse events [4]: 1.4% | Administration Site Conditions: subjects with adverse events [4]: 1 | Alanine Aminotransferase Increased: number of adverse events [4]: 1 | Alanine Aminotransferase Increased: percentage of subjects with adverse events [4]: 1.4% | Alanine Aminotransferase Increased: subjects with adverse events [4]: 1 | Application Site Irritation: number of adverse events [4]: 1 | Application Site Irritation: percentage of subjects with adverse events [4]: 1.4% | Application Site Irritation: subjects with adverse events [4]: 1 | Diarrhoea: number of adverse events [4]: 2 | Diarrhoea: percentage of subjects with adverse events [4]: 2.9% | Diarrhoea: subjects with adverse events [4]: 2 | Dizziness: number of adverse events [4]: 2 | Dizziness: percentage of subjects with adverse events [4]: 2.9% | Dizziness: subjects with adverse events [4]: 2 | Headache: number of adverse events [4]: 6 | Headache: percentage of subjects with adverse events [4]: 5.7% | Headache: subjects with adverse events [4]: 4 | Hypertriglyceridemia: number of adverse events [4]: 3 | Hypertriglyceridemia: percentage of subjects with adverse events [4]: 4.3% | Hypertriglyceridemia: subjects with adverse events [4]: 3 | Positive Fecal Occult Blood Test: number of adverse events [4]: 6 | Positive Fecal Occult Blood Test: percentage of subjects with adverse events [4]: 7.1% | Positive Fecal Occult Blood Test: subjects with adverse events [4]: 5 | Throat Irritation: number of adverse events [4]: 1 | Throat Irritation: percentage of subjects with adverse events [4]: 1.4% | Throat Irritation: subjects with adverse events [4]: 1 | Total Adverse Events: number of adverse events [4]: 34 | Total Adverse Events: percentage of subjects with adverse events [4]: 41.4% | Total Adverse Events: subjects with adverse events [4]: 29 | White Blood Cell Count Decreased: number of adverse events [4]: 2 | White Blood Cell Count Decreased: percentage of subjects with adverse events [4]: 2.9% | White Blood Cell Count Decreased: subjects with adverse events [4]: 2 | Abdominal Discomfort: number of adverse events [5]: 1 | Abdominal Discomfort: percentage of subjects with adverse events [5]: 1.4% | Abdominal Discomfort: subjects with adverse events [5]: 1 | Abdominal Pain Upper: number of adverse events [5]: 2 | Abdominal Pain Upper: percentage of subjects with adverse events [5]: 1.4% | Abdominal Pain Upper: subjects with adverse events [5]: 1 | Administration Site Conditions: number of adverse events [5]: 4 | Administration Site Conditions: percentage of subjects with adverse events [5]: 5.7% | Administration Site Conditions: subjects with adverse events [5]: 4 | Application Site Irritation: number of adverse events [5]: 1 | Application Site Irritation: percentage of subjects with adverse events [5]: 1.4% | Application Site Irritation: subjects with adverse events [5]: 1 | Application Site Rash: number of adverse events [5]: 3 | Application Site Rash: percentage of subjects with adverse events [5]: 4.3% | Application Site Rash: subjects with adverse events [5]: 3 | Aspartate Aminotransferase Increased: number of adverse events [5]: 1 | Aspartate Aminotransferase Increased: percentage of subjects with adverse events [5]: 1.4% | Aspartate Aminotransferase Increased: subjects with adverse events [5]: 1 | Dizziness: number of adverse events [5]: 1 | Dizziness: percentage of subjects with adverse events [5]: 1.4% | Dizziness: subjects with adverse events [5]: 1 | Headache: number of adverse events [5]: 1 | Headache: percentage of subjects with adverse events [5]: 1.4% | Headache: subjects with adverse events [5]: 1 | Hypertriglyceridemia: number of adverse events [5]: 6 | Hypertriglyceridemia: percentage of subjects with adverse events [5]: 8.6% | Hypertriglyceridemia: subjects with adverse events [5]: 6 | Positive Fecal Occult Blood Test: number of adverse events [5]: 5 | Positive Fecal Occult Blood Test: percentage of subjects with adverse events [5]: 7.1% | Positive Fecal Occult Blood Test: subjects with adverse events [5]: 5 | Total Adverse Events: number of adverse events [5]: 25 | Total Adverse Events: percentage of subjects with adverse events [5]: 35.7% | Total Adverse Events: subjects with adverse events [5]: 25
